Data set [1] in a line: In vitro metabolic stability in cryopreserved human hepatocytes. The data set is classed as in vitro ADME. To be noted: 1 μM test compound. As for the experimental part:
Investigation of In Vitro Metabolic Stability in Cryopreserved Human Hepatocytes (Including Calculation of Hepatic In Vivo Blood Clearance (CL) and Maximal Oral Bioavailability (Fmax))
Cryopreserved Hepatocytes (e.g. purchased from Celsis InVitroTechnologies) were briefly thawed, washed with 45 mL pre-warmed in in vitro GRO HT medium and centrifuged for 5 min at 50×g. The cell pellet was resuspended in 5 ml of Krebs-Henseleit […] (KHB). Cell viability was determined by trypan blue exclusion.
For the metabolic stability assay liver cells were distributed in WME containing 5% FCS to glass vials at a density of 1.0×10^6 vital cells/ml. The test compound was added to a final concentration of 1 μM. During incubation, the hepatocyte suspensions were continuously shaken at 580 rpm and aliquots were taken at 2, 8, 16, 30, 45 and 90 min, to which equal volumes of cold methanol were immediately added. Samples were frozen at −20° C. over night, after subsequently centrifuged for 15 minutes at 3000 rpm and the supernatant was analyzed with an Agilent 1290 HPLC-system with LCMS/MS detection.
The half-life of a test compound was determined from the concentration-time plot. From the half-life the intrinsic clearances were calculated. […] The hepatic in vivo blood clearance (CL) and the maximal oral bioavailability (Fmax) was calculated.

Another data set addresses T1, PDE3B (Homo sapiens, UniProt Q13370).
T1 construct: Caliper (ran the assay)
In words: PDE3B enzyme inhibition (reported with the 3H-cAMP SPA method). In kind it is biochemical.

The test system of a further data set is A549. In words: Cell proliferation measurement (Cell Titer Glo, 72 h). To be noted: Homo sapiens, A549, lung adenocarcinoma. The data set is classed as cell-based. As for the experimental part:
(§1) The antiproliferative activity of the compounds of the general formula (I) was examined in vitro in human cancer cells. For this purpose, 1000 cells were plated in 384-well plates with appropriate growth medium and incubated at 37° C. overnight. After 24 h, cells on one plate (0 h plate) were treated with 30 μl/cavity of CTG solution (Promega Cell Titer Glo (catalogue #G755B and G756B)) and incubated at room temperature for 10 min, and luminescence was measured by means of a VICTOR V (Perkin Elmer), in order to determine cell viability on commencement of treatment. The cells on the test plate were treated with the compounds of the general formula (I) as and incubated at 37° C. for 72 h. The compounds were added to the cells by means of an HP D300 digital dispenser in a 10-step 2,5-fold dilution series. As control, the cells were treated with vehicle (DMSO at 0.3% final concentration). After 72 h, the cells were treated with 30 μl/cavity of CTG solution (Promega Cell Titer Glo (catalogue #G755B and G756B)) and incubated at room temperature for 10 min, and luminescence was measured by means of a VICTOR V (Perkin Elmer), in order to determine cell viability at the end of treatment. The percentage effect on cell growth and the IC50 derived therefrom were determined for each test substance using the values from the 0 h plate (=maximum inhibition) and the DMSO control (=minimum inhibition). The IC50 values were calculated using a 4-parameter fit.

A further data set has as its system HeLa. Described as above. In kind it is cell-based. To be noted: Homo sapiens, cervical cancer. As for the experimental part: as §1
A further data set deals with SKMEL3. Described as above. In kind it is cell-based. Conditions: Homo sapiens, SK-MEL3, SKMEL3, melanoma. As for the experimental part:
as §1

The target of another data set is T2, human full length PDE3A (Homo sapiens, UniProt Q14432).
T2 construct: Sf9 cells overexpressing human full length PDE3A (SB Drug Discovery, UK); purchased SB Drug Discovery, UK; host or cells: Sf9
T2 sequence (Q14432 whole entry): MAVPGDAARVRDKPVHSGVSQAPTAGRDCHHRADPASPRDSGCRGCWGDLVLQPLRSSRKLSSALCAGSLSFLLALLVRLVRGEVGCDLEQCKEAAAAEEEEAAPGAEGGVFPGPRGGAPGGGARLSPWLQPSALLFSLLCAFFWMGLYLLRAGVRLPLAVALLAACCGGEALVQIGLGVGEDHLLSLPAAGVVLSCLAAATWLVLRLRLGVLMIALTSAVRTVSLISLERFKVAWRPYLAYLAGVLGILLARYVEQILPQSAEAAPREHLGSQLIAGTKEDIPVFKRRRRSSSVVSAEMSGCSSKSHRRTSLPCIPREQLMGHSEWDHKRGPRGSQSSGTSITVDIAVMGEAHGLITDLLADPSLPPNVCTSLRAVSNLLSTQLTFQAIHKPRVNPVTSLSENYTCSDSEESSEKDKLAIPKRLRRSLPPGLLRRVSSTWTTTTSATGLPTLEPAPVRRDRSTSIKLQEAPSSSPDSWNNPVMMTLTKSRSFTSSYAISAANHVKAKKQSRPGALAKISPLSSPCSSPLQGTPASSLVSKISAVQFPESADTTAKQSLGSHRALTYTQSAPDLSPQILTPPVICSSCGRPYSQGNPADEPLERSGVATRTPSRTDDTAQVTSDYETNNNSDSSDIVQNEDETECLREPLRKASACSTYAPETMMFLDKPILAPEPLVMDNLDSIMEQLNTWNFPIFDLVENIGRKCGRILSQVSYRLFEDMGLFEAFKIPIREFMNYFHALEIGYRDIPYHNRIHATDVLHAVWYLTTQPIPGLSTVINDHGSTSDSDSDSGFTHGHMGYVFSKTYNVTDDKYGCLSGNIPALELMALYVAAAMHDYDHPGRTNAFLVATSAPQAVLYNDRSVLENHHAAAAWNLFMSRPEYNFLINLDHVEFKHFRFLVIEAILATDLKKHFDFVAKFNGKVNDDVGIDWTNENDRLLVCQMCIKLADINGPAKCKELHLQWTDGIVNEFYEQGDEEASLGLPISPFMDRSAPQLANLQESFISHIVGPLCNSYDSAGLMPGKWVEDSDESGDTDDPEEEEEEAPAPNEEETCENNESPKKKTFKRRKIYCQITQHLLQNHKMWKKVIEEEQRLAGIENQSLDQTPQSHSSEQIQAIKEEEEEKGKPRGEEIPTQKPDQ
Put plainly: PDE3A enzyme inhibition (3H-cAMP Scintillation Proximity Assay). The data set is classed as biochemical. Conditions: Sf9 cell extract, 60 min. As for the experimental part:
The commercially available ^3H-cAMP Scintillation Proximity Assay (SPA, Perkin Elmer) system was used for enzyme inhibition studies. For the determination of the in vitro effect of test substances on the PDE3A reactions 2 μl of the respective test compound solution in DMSO (serial dilutions) were placed in wells of microtiter plates (Isoplate-96/200W; Perkin Elmer). 50 μl of a dilution of PDE3A cell extract from Sf9 cells overexpressing human full length PDE3A (SB Drug Discovery, UK) in buffer A (50 mM Tris/HCl pH 7.5, 8.3 mM MgCl2, 1.7 mM EDTA, 0.2% BSA) was added. The dilution of the PDE3A cell extract was chosen such that the reaction kinetics was linear and less than 70% of the substrate was consumed (typical dilution 1:5000). The reaction was started by addition of 50 μl (0.025 μCi) of 1:2000 in buffer A w/o BSA diluted substrate [8-^3H] adenosine 3′, 5′-cyclic phosphate (1 μCi/μl; Perkin Elmer). After incubation at room temperature for 60 min, the reaction was stopped by addition of 25 μl of a suspension containing 18 mg/ml yttrium scintillation proximity beads (Perkin Elmer) in water. The microtiter plates were sealed and measured in a Microbeta scintillation counter (PerkinElmer Wallac). IC50 values were determined from sigmoidal curves by plotting percentage PDE3A activity vs log compound concentration.

Data set [2] relates to HeLa cells. In words: Compound sensitivity testing in cell lines (cell viability, 48 h). In kind it is cell-based, human. To be noted: 48 h. As for the experimental part: (§2) 1500 NCI-H1734 or 1000 A549 cells were plated in a 384-well plate in 40 μl of RPMI supplemented with 10% Fetal Bovine Serum and 1% Pen/Strep. 24 hours after plating, a compound-library of 1924 small molecules was added at a concentration of 10 μM. Staurosporine was used a positive control for cytotoxicity at a concentration of 10 μM, and DMSO was used a negative control at a concentration of 1%. All compounds were incubated for 48 hours with indicated small molecules. After 48 hours, 384-well plates were removed from the incubator and allowed to cool to room temperature for 20 minutes. Cell viability was assessed by adding 40 μl of a 25% CELLTITERGLO® (Promega) in PBS with a THERMO COMBI™ or multichannel-pipette and incubated for 10 minutes. The luminescence signal was read using a Perkin-Elmer EnVision. Viability percentage was calculated by normalizing to DMSO controls.
1000 HeLa (DMEM), 1000 A549 (RPMI), 500 MCF-7 (DMEM), 4000 PC3 (F12-K), 1000 NCI-H2122 (RPMI) or 1500 NCI-H1563 (RPMI) cells were plated in a 384-well plate in 40 μl of corresponding growth media supplemented with 10% Fetal Bovine Serum. 24 hours after plating, indicated compounds were added at indicated concentrations and incubated for 48 hours. Cell viability was assessed as described in Compound library screening in NCI-H1734 and A549 cell lines.

Data set [3] has as its system HeLa cells. Put plainly: Caspase activity in HeLa cells (Caspase-Glo). Conditions: 48 h. In kind it is cell-based, human. How it is done: Thus one aspect of the invention is the use of DNMDP for the treatment of lung adenocarcinoma and cervical cancer.
1000 HeLa cells were plated in 384-well plate in 40 μl of corresponding growth media supplemented with 10% Fetal Bovine Serum. 24 hours after plating, indicated compounds were added at indicated concentrations and incubated for 48 hours. Caspase-Glo from Promega was added according to the manufacturers recommendations and luminescence was determined as described in Compound library screening in NCI-H1734 and A549 cell lines.

The subject of another data set is NCI-H1734. In words: Compound library screening in NCI-H1734 and A549 cell lines. In kind it is cell-based, human. To be noted: NCI-H1734 versus A549, 48 h. How it is done:
To identify anti-cancer compounds with cell-selective cytotoxic activity, an unbiased chemical screen was performed in two lung adenocarcinoma cell lines, A549 and NCI-H1734, both of which harbor oncogenic KRAS mutations and truncating STK11 mutations, and which were TP53 wild type and mutant (R273L), respectively. 1,924 compounds were screened from the Molecular Libraries Small-Molecule Repository validation set in the A549 and NCI-H1734 cell lines at a single concentration of 10 μM in 384-well format in duplicate. As a proxy for cellular viability, ATP content was measured after 48 hours of compound treatment.
as §2, with “After 48 hours, 384-well plates were removed from the incubator and allowed to cool to room temperature for 20 minutes.” left out

In the next data set the target is T3, PDE3A(677-1141) (Homo sapiens, UniProt Q14432).
T3 construct: purified PDE3A catalytic domain, PDE3A(677-1141)
T3 sequence (Q14432 677-1141): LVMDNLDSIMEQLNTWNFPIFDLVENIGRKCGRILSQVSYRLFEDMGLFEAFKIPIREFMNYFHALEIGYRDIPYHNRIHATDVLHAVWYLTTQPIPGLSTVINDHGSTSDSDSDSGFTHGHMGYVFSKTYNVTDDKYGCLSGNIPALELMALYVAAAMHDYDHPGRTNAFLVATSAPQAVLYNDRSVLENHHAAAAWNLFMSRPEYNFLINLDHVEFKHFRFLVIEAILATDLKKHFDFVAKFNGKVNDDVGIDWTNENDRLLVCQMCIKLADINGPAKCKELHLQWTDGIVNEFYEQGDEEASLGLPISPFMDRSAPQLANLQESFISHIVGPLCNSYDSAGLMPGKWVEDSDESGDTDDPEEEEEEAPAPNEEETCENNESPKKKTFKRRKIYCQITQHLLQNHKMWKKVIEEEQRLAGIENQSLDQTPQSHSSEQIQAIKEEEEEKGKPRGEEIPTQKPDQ
In words: Differential scanning fluorimetry (DSF) binding to purified PDE3A catalytic domain. To be noted: 5 μM PDE3A, 100 μM compound. How it is done:
Binding buffer: 20 mM Hepes pH 7.4, 100 μM TCEP, 1 mM MgCl2, 150 mM NaCl.
On the technique in general: DSF heats the sample and reads unfolding from a dye or from intrinsic fluorescence.

The target of a further data set is T4, PDE3A and SLFN12 complex (Homo sapiens, UniProt Q14432).
T4 construct: Immunoprecipitation of endogenous PDE3A in HeLa cells treated with DNMDP; host or cells: HeLa
T4 sequence (Q14432 whole entry): as the sequence (Q14432 whole entry) above
T4 sequence (Q8IYM2 whole entry partner): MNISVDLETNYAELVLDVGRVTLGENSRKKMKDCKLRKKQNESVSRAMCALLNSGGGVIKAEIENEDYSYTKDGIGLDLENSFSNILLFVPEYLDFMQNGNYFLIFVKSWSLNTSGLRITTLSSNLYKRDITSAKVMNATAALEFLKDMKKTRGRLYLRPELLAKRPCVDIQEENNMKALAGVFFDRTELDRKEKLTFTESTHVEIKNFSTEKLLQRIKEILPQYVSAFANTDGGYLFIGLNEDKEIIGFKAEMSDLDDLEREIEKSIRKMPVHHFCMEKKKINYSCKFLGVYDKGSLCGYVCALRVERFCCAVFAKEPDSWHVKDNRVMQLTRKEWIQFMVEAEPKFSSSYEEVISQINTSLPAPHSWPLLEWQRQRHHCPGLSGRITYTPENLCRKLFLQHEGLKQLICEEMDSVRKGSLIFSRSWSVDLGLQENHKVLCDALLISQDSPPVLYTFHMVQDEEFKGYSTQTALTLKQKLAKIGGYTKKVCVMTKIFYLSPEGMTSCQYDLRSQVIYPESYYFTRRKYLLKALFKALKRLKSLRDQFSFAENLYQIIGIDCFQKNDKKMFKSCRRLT
In words: DNMDP-induced PDE3A protein interactions by immunoprecipitation and immunoblotting. To be noted: HeLa cells, 10 μM, 4 hours. In kind it is cell-based. The text has this: Binding of DNMDP altered the composition of interacting proteins that were co-immunoprecipitated with PDE3A. […] These proteins specifically interacted with PDE3A in the presence of DNMDP, and were not observed in the trequinsin treated control, whereas a known PDE3B interactor, abhydrolase domain-containing protein 15 (ABHD15, Chavez et al., Biochem. Biophys. Res. Commun. 342, 1218-1222, 2006), was enriched in the immunoprecipitate from trequinsin-treated cells (FIG. 13C and FIG. 14C). The interaction promoted by DNMDP between PDE3A and both SIRT7 and SLFN12 was validated with affinity reagents. Immunoprecipitation of endogenous PDE3A in HeLa cells treated with DNMDP, but not DMSO or trequinsin, enhanced complex formation of ectopically expressed V5-tagged SIRT7 and SLFN12 with PDE3A, as evidenced by coimmunoprecipitation (FIG. 19). […] Without being bound to theory, PDE3A/SLFN12 complex formation correlated with cell killing (FIGS. 21A-21C).
HeLa cells were transfected with ORF overexpression constructs expressing V5-tagged SIRT7, V5-tagged SLFN12, or V5-tagged GFP. ORF expression constructs were obtained from the TRC (clone IDs: TRCN0000468231, TRCN0000476272, ccsbBroad304_99997). At 72 hours post transfection, cells were treated with 10 μM DNMDP or trequinsin for 4 hours followed by lysis using the ModRipa lysis buffer and immunoprecipitation of PDE3A. […]
(Immunoblotting shows a protein as a band on a membrane.)

The source of these data is US12053476B2, “Compounds, compositions and methods for cancer patient stratification and cancer treatment” (BAYER PHARMA AKTIENGESELLSCHAFT, priority 2016, dated 2024).

T1 sequence (Q13370 whole entry, species assumed): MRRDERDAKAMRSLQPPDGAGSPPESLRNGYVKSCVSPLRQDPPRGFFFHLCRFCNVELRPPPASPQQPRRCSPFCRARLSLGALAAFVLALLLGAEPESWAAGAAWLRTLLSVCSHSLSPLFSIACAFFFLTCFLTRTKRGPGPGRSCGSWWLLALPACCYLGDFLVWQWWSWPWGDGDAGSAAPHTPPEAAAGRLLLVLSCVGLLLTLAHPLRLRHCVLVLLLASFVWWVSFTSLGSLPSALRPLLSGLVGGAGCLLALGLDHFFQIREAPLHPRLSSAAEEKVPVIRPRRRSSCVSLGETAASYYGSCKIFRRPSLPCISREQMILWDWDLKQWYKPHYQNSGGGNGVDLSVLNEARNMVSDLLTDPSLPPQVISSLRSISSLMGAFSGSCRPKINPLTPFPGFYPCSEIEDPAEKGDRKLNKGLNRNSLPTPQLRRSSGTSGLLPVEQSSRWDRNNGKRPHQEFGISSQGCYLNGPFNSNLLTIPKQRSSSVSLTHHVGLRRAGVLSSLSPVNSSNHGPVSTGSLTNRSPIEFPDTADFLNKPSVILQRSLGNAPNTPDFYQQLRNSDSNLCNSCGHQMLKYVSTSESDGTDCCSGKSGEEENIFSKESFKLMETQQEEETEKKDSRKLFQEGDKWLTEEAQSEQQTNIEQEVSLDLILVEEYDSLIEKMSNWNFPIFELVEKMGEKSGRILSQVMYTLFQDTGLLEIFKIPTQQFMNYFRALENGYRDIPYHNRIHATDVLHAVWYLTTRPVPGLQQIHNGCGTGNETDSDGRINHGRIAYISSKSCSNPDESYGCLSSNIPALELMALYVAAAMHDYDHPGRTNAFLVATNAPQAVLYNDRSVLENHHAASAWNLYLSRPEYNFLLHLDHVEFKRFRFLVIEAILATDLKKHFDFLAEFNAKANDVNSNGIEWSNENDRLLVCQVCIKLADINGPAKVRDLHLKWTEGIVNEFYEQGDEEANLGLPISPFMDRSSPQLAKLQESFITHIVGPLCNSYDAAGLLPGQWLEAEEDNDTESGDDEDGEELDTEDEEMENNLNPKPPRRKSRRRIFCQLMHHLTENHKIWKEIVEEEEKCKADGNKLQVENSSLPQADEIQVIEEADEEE

The term IC50 denotes the point on the concentration scale where inhibition reaches its midpoint. The low end stands for greater potency, the high end for weaker potency. One may read the EC50 as the midpoint of the concentration-response curve. Read a low EC50 as a more potent agent. On to `C[C@@H]1CC(=O)NN=C1c1cc(F)c(N2CCOCC2)c(Cl)c1` [Compound 6, (5R)-6-[3-chloro-5-fluoro-4-(morpholin-4-yl)phenyl]-5-methyl-4,5-dihydropyridazin-3(2H)-one], for which the “mean metabolic stability (Fmax)” value in data set [1] worked out at 93%. Further, the IC50 at PDE3B is 3.4 nM; in the data set with A549, > 600 nM; in the data set with HeLa, 0.327 nM; with SKMEL3, 0.441 nM; against human full length PDE3A, 2.4 nM. Besides, in the data set on HeLa cells [2] (Homo sapiens), the EC50 was 1.1 nM.

In general, Tm refers to the temperature at which the thermal transition is half complete. `CCN(CC)c1ccc(C2=NNC(=O)CC2C)cc1[N+](=O)[O-]` (stereo not drawn) [DNMDP, 6-(4-(diethylamino)-3-nitrophenyl)-5-methyl-4,5-dihydropyridazin-3(2H)-one]: the “caspase activity (apoptosis)” value with HeLa cells [3] is listed as “Caspase activity was detected”. In addition, the “selective toxicity in dose-response retest (in words)” value in the data set with NCI-H1734 is recorded as “specifically toxic to the NCI-H1734 cell line”. In addition, the Tm on PDE3A(677-1141) turned out to be 58.4 ± 0.0 °C. Moreover, the “EC70 HeLa cell viability” value with HeLa cells [2] is 30 nM. The “PDE3A and SLFN12 complex formation” value on PDE3A and SLFN12 complex was “induced PDE3A and SFLN12 complex formation”.
